Values quoted from earlier work as cited in patent publication US11230722B2, “Nutritional supplements and therapeutic compositions comprising (r)-3-hydroxybutyrate derivatives” (Oxford University Innovation Limited, priority 2003, dated 2022).

Test system: gastric enzymes

SMILES: C[C@@H]1CC(=O)O[C@H](C)CC(=O)O[C@H](C)CC(=O)O1 [triolide, cyclic trimer of (R)-3-hydroxybutyrate]
- absorption: only poorly absorbed
- hydrolysis by gastric enzymes: not efficiently hydrolyzed
